# Measured values from patent US20260184697A1, “EZH1/2 INHIBITOR, PREPARATION THEREOF, AND USE THEREOF IN ANTI-TUMOR THERAPY” (JIANGSU TASLY DIYI PHARMACEUTICAL CO., LTD., priority 2022, published 2026).
# Columns and labels:
# EZH2/SUZ/EED = molecular target: T1, EZH2/SUZ/EED (Homo sapiens, UniProt O75530+Q15022+Q15910); assay: Inhibitory effect on EZH2 by the MTase-Glo method (Test Example 1); assay type: biochemical; conditions: EZH2/SUZ/EED 6.25 nM, H3 peptide 10 μM, SAM 3 μM, 30° C. 3 h, read-out: Test Example 1 WT EZH2 IC50
# T1 construct: purchased BPS 51003
# Experimental: (§1) The compound was dissolved in DMSO, and the compound was serially diluted using ECHO665 and transferred to a 384-well reaction plate (Corning, 3824). A sample containing only DMSO was added as a positive control (maximum signal control) and a negative control (minimum signal control), while ensuring that the final DMSO content in each reaction well was 0.5%. The protein was configured in reaction buffer (50 mM Bicine, 0.01% Triton X-100, 1 mM DTT, 0.01% BSA, pH 7.6), such that the final reaction concentrations of EZH2/SUZ/EED (BPS, 51003) protein solution and EZH1/SUZ/EED (BPS, 51006) were 6.25 nM and 25 nM, respectively. The negative control (minimum signal control) used an equal amount of buffer instead of protein solution. The prepared protein solution was added to the 384-well reaction plate and pre-incubated at room temperature for 15 minutes. The mixture of the substrate H3 peptide fragment (custom-synthesized by GenScript, biotinylated Histone H3(21-44) peptide ([…]-GG-K(Biotin)-OH)) prepared in the reaction buffer and SAM (Promega, V7601) was added into the 384-well plate, such that the final reaction concentration of H3 peptide fragment was 10 μM, and the final concentration of SAM was 3 μM. The mixture was centrifuged at 1000 rpm for 1 min. The 384-well reaction plate was placed in a constant temperature shaker and incubate at 30° C. for 3 h at a speed of 300 rpm. Then the detection reagent was added according to the experimental process of the kit MTase-Glo (Promega, V7601) and incubated.
# (§2) After incubation, read with BMG PHERAStar. The luminescence signals obtained by positive control (maximum signal control) and negative control (minimum signal control) were normalized to obtain the inhibition rate of different concentrations of compounds. Then, the IC50 of the compound on the enzyme activity inhibition was calculated by GraphPad Prism 6 with log(inhibitor) vs. response-Variable slope model fitting. The fitting equation is: Y=Bottom+(Top−Bottom)/(1+10^((Log IC50−X)*HillSlope)), wherein Y represents the known percentage remaining enzyme activity, and X represents the known activity after Log compound concentration.
# EZH1/SUZ/EED = molecular target: T2, EZH1/SUZ/EED (Homo sapiens, UniProt O75530+Q15022+Q92800); assay: Inhibitory effect on EZH1 by the MTase-Glo method (Test Example 1); assay type: biochemical; conditions: EZH1/SUZ/EED 25 nM, H3 peptide 10 μM, SAM 3 μM, 30° C. 3 h, read-out: Test Example 1 WT EZH1 IC50
# T2 construct: purchased BPS 51006
# Experimental: as §1, §2
# T1 sequence (Q15910 2-746 limits assumed): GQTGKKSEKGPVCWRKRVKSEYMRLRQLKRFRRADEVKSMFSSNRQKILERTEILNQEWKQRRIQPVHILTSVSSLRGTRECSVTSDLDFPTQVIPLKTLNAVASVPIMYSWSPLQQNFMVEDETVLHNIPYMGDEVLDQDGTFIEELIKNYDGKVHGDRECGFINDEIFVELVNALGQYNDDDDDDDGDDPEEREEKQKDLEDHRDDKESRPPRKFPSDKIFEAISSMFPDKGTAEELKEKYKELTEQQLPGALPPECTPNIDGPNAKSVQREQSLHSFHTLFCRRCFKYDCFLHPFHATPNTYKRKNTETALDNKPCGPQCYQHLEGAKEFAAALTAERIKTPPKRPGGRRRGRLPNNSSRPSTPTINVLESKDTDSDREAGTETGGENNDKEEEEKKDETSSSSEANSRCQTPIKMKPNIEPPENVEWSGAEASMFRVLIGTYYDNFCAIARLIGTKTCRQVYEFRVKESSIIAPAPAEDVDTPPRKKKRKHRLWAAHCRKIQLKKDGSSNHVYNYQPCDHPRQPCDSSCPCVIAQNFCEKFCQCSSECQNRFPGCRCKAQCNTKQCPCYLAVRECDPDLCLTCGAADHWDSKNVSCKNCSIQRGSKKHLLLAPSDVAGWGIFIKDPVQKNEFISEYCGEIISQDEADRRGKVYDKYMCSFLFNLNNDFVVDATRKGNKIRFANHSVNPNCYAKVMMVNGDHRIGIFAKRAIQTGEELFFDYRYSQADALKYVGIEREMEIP
# T1 sequence (Q15022 2-739 partner limits assumed): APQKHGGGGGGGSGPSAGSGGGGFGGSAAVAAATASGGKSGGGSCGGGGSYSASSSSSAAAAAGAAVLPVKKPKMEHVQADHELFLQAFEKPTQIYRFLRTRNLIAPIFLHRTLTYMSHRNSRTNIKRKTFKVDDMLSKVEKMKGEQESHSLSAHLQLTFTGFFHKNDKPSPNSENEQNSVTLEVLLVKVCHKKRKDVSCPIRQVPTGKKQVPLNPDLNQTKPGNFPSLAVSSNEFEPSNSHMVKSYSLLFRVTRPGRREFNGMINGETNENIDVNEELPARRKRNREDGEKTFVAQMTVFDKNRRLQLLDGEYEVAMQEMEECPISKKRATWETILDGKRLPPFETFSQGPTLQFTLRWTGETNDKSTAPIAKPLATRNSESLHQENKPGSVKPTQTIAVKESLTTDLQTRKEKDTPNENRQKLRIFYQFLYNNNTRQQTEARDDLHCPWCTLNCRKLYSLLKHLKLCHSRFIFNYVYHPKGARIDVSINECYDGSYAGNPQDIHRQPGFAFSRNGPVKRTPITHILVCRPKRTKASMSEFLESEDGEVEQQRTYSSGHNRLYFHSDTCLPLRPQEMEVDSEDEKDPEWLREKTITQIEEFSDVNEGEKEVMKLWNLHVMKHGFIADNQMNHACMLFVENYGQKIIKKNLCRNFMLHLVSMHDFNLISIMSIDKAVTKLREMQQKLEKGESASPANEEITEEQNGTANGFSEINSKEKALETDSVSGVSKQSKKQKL
# T1 sequence (O75530 2-441 partner limits assumed): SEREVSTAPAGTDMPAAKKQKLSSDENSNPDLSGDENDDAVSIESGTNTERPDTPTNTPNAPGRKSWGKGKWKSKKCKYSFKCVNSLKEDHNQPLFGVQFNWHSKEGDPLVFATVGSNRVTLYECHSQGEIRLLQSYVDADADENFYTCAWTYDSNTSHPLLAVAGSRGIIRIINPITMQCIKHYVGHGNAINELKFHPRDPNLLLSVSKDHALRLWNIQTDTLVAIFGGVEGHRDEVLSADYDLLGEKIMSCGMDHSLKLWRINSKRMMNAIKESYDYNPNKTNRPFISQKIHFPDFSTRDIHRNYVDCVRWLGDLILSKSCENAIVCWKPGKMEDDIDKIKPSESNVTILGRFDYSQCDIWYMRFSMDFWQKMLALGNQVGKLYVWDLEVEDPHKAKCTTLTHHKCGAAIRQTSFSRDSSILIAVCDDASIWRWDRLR
# T2 sequence (Q92800 2-747 limits assumed): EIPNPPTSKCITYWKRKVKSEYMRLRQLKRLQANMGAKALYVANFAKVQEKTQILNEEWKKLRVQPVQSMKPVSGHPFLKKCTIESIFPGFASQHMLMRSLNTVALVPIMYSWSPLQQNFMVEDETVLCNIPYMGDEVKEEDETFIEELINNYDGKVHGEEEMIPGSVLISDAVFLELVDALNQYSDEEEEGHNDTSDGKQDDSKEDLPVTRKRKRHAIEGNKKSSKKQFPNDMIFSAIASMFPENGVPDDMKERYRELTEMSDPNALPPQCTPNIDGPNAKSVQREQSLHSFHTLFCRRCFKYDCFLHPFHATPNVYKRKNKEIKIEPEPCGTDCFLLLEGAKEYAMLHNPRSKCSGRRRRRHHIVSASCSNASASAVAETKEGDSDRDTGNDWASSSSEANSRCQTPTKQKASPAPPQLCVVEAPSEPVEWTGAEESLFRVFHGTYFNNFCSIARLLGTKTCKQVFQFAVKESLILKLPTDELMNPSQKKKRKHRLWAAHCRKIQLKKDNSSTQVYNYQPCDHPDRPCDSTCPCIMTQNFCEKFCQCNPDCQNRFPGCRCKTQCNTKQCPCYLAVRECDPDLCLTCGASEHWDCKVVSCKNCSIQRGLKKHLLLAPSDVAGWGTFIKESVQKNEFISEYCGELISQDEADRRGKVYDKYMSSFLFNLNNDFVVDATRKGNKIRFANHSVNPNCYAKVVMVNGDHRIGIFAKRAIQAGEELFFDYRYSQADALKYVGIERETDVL
# T2 sequence (Q15022 2-739 partner limits assumed): as the sequence (Q15022 2-739 partner limits assumed) above
# T2 sequence (O75530 2-441 partner limits assumed): as the sequence (O75530 2-441 partner limits assumed) above
IC50 (EZH2/SUZ/EED),IC50 (EZH1/SUZ/EED),Structure (SMILES)
29.7 nM,641 nM,"Cc1cc(C)c(CNC(=O)c2cc(Cl)c3c(c2C)OC(C2CCC(NC4CC(F)C4)CC2)CO3)c(=O)[nH]1 (single isomer, unassigned) [Compound 65]"
24.4 nM,687 nM,"Cc1cc(C)c(CNC(=O)c2cc(Cl)c3c(c2C)OC(C2CCC(NC4CC(F)(F)C4)CC2)CO3)c(=O)[nH]1 (single isomer, unassigned) [Compound 66]"
47.6 nM,367 nM,"Cc1cc(C)c(CNC(=O)c2cc(Cl)c3c(c2C)OC(C2CCC(NC4CC(F)(F)C4)CC2)CO3)c(=O)[nH]1 (single isomer, unassigned) [Compound 67]"
59.3 nM,> 10000 nM,"COC1(C(F)(F)F)CN(C2CCC(C3COc4c(Cl)cc(C(=O)NCc5c(C)cc(C)[nH]c5=O)c(C)c4O3)CC2)C1 (single isomer, unassigned) [Compound 68]"
84.6 nM,879 nM,"COC1(C(F)(F)F)CN(C2CCC(C3COc4c(Cl)cc(C(=O)NCc5c(C)cc(C)[nH]c5=O)c(C)c4O3)CC2)C1 (single isomer, unassigned) [Compound 69]"
41.8 nM,564 nM,"Cc1cc(C)c(CNC(=O)c2cc(Cl)c3c(c2C)OC(C2CCC(N4CC(F)C4)CC2)CO3)c(=O)[nH]1 (single isomer, unassigned) [Compound 71]"
27.5 nM,1300 nM,Cc1cc(C)c(CNC(=O)c2cc(Cl)c3c(c2C)OC(C2CCN(C)CC2)CO3)c(=O)[nH]1 (stereo not drawn) [Compound 1]
1250 nM,> 10000 nM,Cc1cc(C)c(CNC(=O)c2cc(Cl)c3c(c2C)O[C@H]([C@H]2CC[C@H](N4CC5COCC5C4)CC2)CO3)c(=O)[nH]1 (stereo partly drawn) [Compound 72]
998 nM,> 10000 nM,Cc1cc(C)c(CNC(=O)c2cc(Cl)c3c(c2C)O[C@H]([C@H]2CC[C@@H](N4CC5COCC5C4)CC2)CO3)c(=O)[nH]1 (stereo partly drawn) [Compound 74]
85.1 nM,,Cc1cc(C)c(CNC(=O)c2cc(Cl)c3c(c2C)OC(C2CCN(C(C)C)CC2)CO3)c(=O)[nH]1 (stereo not drawn) [Compound 82]
8.2 nM,,Cc1cc(C)c(CNC(=O)c2cc(Cl)c3c(c2C)OC(C2CCN(CC4COC4)CC2)CO3)c(=O)[nH]1 (stereo not drawn) [Compound 83]
11 nM,,Cc1cc(C)c(CNC(=O)c2cc(Cl)c3c(c2C)OC(C2CCN(C4COC4)CC2)CO3)c(=O)[nH]1 (stereo not drawn) [Compound 84]
780 nM,,Cc1cc(C)c(CNC(=O)c2cc(Cl)c3c(c2C)O[C@H](C2CCN(CC4COC4)CC2)CO3)c(=O)[nH]1 [Compound 87]
1840 nM,,Cc1cc(C)c(CNC(=O)c2cc(Cl)c3c(c2C)O[C@H](C2CCN(C4COC4)CC2)CO3)c(=O)[nH]1 [Compound 89]
18.6 nM,945 nM,Cc1cc(C)c(CNC(=O)c2cc(Cl)c3c(c2C)O[C@@H](C2CCN(CC4CC4)CC2)CO3)c(=O)[nH]1 [Compound 90]
6 nM,132 nM,CON=C1CCC([C@H]2COc3c(Cl)cc(C(=O)NCc4c(C)cc(C)[nH]c4=O)c(C)c3O2)CC1 (stereo partly drawn) [Compound 93]
93.4 nM,,COc1cc(C)[nH]c(=O)c1CNC(=O)c1cc(Cl)c2c(c1C)O[C@H]([C@H]1CC[C@H](N3CC(OC)C3)CC1)CO2 [Compound 99]
128 nM,,COc1cc(C)[nH]c(=O)c1CNC(=O)c1cc(Cl)c2c(c1C)O[C@H]([C@H]1CC[C@@H](N3CC(OC)C3)CC1)CO2 [Compound 100]
5 nM,69.3 nM,COCCN(C)[C@H]1CC[C@H]([C@H]2COc3c(Cl)cc(C(=O)NCc4c(OC)cc(C)[nH]c4=O)c(C)c3O2)CC1 [Compound 108]
,84 nM,COc1cc(C)[nH]c(=O)c1CNC(=O)c1cc(Cl)c2c(c1C)O[C@@H](C1CCC(OCCF)CC1)CO2 (stereo partly drawn) [Compound 123]
,190 nM,Cc1cc(C2CC2)c(CNC(=O)c2cc(Cl)c3c(c2C)O[C@@H]([C@H]2CC[C@@H](N(C)C)CC2)CO3)c(=O)[nH]1 [Compound 157]
,3440 nM,Cc1cc(C2CC2)c(CNC(=O)c2cc(Cl)c3c(c2C)O[C@@H]([C@H]2CC[C@H](N(C)C)CC2)CO3)c(=O)[nH]1 [Compound 158]

# The remaining lines, values behind:
Structure (SMILES),IC50 (EZH2/SUZ/EED),IC50 (EZH1/SUZ/EED)
COc1c(Cl)c2c(c(C)c1C(=O)NCc1c(C)cc(C)[nH]c1=O)O[C@@H](C1CCC(N(C)C)CC1)CO2 (mixture of isomers) [Compound 133],16.6 nM,584 nM
"CON(C)C1CCC(C2COc3c(Cl)cc(C(=O)NCc4c(C)cc(C)[nH]c4=O)c(C)c3O2)CC1 (single isomer, unassigned) [Compound 79]",2 nM,
Cc1cc(C)c(CNC(=O)c2ccc3c(c2C)COC(C)(C2CCC(N(C)C)CC2)O3)c(=O)[nH]1 (stereo not drawn) [Compound 4],7210 nM,
CSc1cc(C)[nH]c(=O)c1CNC(=O)c1cc(Cl)c2c(c1C)O[C@@H]([C@H]1CC[C@H](N3CC(OC4CC4)C3)CC1)CO2 [Compound 10],158 nM,
CSc1cc(C)[nH]c(=O)c1CNC(=O)c1cc(Cl)c2c(c1C)O[C@H]([C@H]1CC[C@@H](N3CC(OC4CC4)C3)CC1)CO2 [Compound 13],17.7 nM,
[2H]C([2H])([2H])OC1CN([C@H]2CC[C@H]([C@H]3COc4c(Cl)cc(C(=O)NCc5c(SC)cc(C)[nH]c5=O)c(C)c4O3)CC2)C1 [Compound 21],6.4 nM,18.9 nM
CSc1cc(C)[nH]c(=O)c1CNC(=O)c1cc(Cl)c2c(c1C)O[C@H](C1CCN(CC3CC3)CC1)CO2 [Compound 31],66.3 nM,491 nM
CO[C@H]1CCN([C@H]2CC[C@@H]([C@H]3COc4c(Cl)cc(C(=O)NCc5c(SC)cc(C)[nH]c5=O)c(C)c4O3)CC2)C1 [Compound 39],4 nM,7.3 nM
CO[C@@H]1CCN([C@H]2CC[C@@H]([C@H]3COc4c(Cl)cc(C(=O)NCc5c(SC)cc(C)[nH]c5=O)c(C)c4O3)CC2)C1 [Compound 41],4.3 nM,3.9 nM
COC1C2CN([C@H]3CC[C@H]([C@H]4COc5c(Cl)cc(C(=O)NCc6c(SC)cc(C)[nH]c6=O)c(C)c5O4)CC3)CC21 (stereo partly drawn) [Compound 44],,13.5 nM
COc1cc(C)[nH]c(=O)c1CNC(=O)c1cc(Cl)c2c(c1C)O[C@@H]([C@H]1CC[C@@H](N3CC4COCC4C3)CC1)CO2 (stereo partly drawn) [Compound 95],11.6 nM,227 nM
COc1cc(C)[nH]c(=O)c1CNC(=O)c1cc(Cl)c2c(c1C)O[C@@H]([C@H]1CC[C@H](N3CC4COCC4C3)CC1)CO2 (stereo partly drawn) [Compound 96],7 nM,167 nM
COCCOC1CN([C@H]2CC[C@H]([C@H]3COc4c(Cl)cc(C(=O)NCc5c(OC)cc(C)[nH]c5=O)c(C)c4O3)CC2)C1 [Compound 102],2.6 nM,655 nM
COc1cc(C)[nH]c(=O)c1CNC(=O)c1cc(Cl)c2c(c1C)O[C@@H]([C@H]1CC[C@@H](N3CC4(CC4)C3)CC1)CO2 [Compound 111],13.4 nM,27.3 nM
COc1cc(C)[nH]c(=O)c1CNC(=O)c1cc(Cl)c2c(c1C)O[C@@H]([C@H]1CC[C@H](N3CC4(CC4)C3)CC1)CO2 [Compound 112],,49.9 nM
COc1cc(C)[nH]c(=O)c1CNC(=O)c1cc(Cl)c2c(c1C)O[C@@H]([C@H]1CC[C@H](N3CC4CC4C3)CC1)CO2 (stereo partly drawn) [Compound 114],,267 nM
COc1cc(C)[nH]c(=O)c1CNC(=O)c1cc(Cl)c2c(c1C)O[C@@H]([C@H]1CC[C@H](N3CC4C(C3)C4OC)CC1)CO2 (stereo partly drawn) [Compound 116],,156 nM
Cc1cc(C)c(CN(C)C(=O)c2cc(Cl)c3c(c2C)O[C@@H]([C@H]2CC[C@@H](N(C)C)CC2)CO3)c(=O)[nH]1 [Compound 127],25.5 nM,
COc1cc(C)[nH]c(=O)c1CN(C)C(=O)c1cc(Cl)c2c(c1C)O[C@@H]([C@H]1CC[C@@H](N(C)C)CC1)CO2 [Compound 129],3.9 nM,
COc1cc(C)[nH]c(=O)c1CNC(=O)c1cc(Cl)c2c(c1Cl)O[C@@H]([C@H]1CC[C@H](N3CC(OC)C3)CC1)CO2 [Compound 152],,126 nM
CSc1cc(C)[nH]c(=O)c1CNC(=O)c1cc(C#N)c2c(c1C)O[C@@H]([C@H]1CC[C@H](N3CC(OC4CC4)C3)CC1)CO2 [Compound 160],,31.6 nM
CSc1cc(C)[nH]c(=O)c1CNC(=O)c1cc(C#N)c2c(c1C)O[C@@H]([C@H]1CC[C@H](N3CC(OCCF)C3)CC1)CO2 [Compound 162],,29.3 nM
[2H]C([2H])([2H])Sc1cc(C)[nH]c(=O)c1CNC(=O)c1cc(Cl)c2c(c1C)O[C@@H](C1CCC(N3CC(OC)C3)CC1)CO2 (stereo partly drawn) [Compound 178],,17.5 nM
